We go through four compounds from PMC10745721, “Chemical Comparison and Identification of Xanthine Oxidase Inhibitors of Dioscoreae Hypoglaucae Rhizoma and Dioscoreae Spongiosae Rhizoma by Chemometric Analysis and Spectrum–Effect Relationship” (Molecules, 2023).

In this assay the target is xanthine oxidase (Bos taurus, UniProt P80457). Put plainly: xanthine oxidase inhibitory assay in vitro (absorbance at 295 nm, uric acid from xanthine). In kind it is biochemical. Conditions: pure compounds, five concentrations each; read-out: IC50 of xanthine oxidase inhibition.
xanthine oxidase, sequence (P80457 whole entry): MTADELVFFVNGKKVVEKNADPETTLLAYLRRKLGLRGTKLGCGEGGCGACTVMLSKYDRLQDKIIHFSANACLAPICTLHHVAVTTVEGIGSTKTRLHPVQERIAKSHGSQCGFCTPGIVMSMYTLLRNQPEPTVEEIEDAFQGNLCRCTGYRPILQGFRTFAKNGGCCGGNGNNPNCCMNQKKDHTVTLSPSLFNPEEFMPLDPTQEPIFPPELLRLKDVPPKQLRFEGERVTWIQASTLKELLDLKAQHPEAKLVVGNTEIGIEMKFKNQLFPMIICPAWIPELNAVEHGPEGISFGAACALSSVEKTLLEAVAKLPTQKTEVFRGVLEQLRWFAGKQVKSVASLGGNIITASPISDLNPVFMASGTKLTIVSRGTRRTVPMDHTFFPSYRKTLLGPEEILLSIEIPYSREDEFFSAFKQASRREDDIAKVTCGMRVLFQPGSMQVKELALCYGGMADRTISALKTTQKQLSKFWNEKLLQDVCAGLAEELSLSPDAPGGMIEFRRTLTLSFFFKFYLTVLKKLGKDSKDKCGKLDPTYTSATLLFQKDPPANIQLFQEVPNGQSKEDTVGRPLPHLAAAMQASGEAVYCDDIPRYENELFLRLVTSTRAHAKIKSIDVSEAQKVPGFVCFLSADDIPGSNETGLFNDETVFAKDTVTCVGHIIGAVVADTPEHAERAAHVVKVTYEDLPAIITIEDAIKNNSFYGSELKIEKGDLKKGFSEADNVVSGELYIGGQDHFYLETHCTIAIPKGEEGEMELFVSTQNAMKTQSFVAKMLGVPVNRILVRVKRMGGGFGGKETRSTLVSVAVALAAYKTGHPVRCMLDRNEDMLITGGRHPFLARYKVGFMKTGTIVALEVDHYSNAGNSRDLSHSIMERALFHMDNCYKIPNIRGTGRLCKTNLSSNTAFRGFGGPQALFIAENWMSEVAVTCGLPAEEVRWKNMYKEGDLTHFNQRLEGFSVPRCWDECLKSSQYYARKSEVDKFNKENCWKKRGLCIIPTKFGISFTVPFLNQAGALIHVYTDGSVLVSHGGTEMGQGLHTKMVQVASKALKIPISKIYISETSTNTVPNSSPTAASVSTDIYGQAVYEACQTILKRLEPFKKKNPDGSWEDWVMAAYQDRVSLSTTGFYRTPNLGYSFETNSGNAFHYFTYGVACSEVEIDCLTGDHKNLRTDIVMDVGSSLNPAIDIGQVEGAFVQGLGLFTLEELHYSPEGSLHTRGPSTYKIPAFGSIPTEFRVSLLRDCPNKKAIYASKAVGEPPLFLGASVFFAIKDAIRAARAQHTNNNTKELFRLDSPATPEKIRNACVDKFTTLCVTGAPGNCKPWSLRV
Description: For xanthine oxidase inhibition assay, 600 μL of supernatant was concentrated in a Termovap Sample Concentrator (Hangzhou Miulab Instruments Co., Ltd., Hangzhou, China) at 30 °C until elimination of solvent. The residue was redissolved in 600 μL PBS.
The xanthine oxidase inhibitory activities of DH and DS samples were determined by xanthine oxidase inhibitory activity assay in vitro [25], which was based on the increase in absorbance at 295 nm due to the production of uric acid from xanthine. In brief, 50 µL of DH or DS samples, 30 µL of phosphate buffer (70 Mm, pH 7.5), and 40 µL of xanthine oxidase (0.05 U/mL) were added into a 96-well plate. After preincubation at 25 °C for 8 min, 60 µL of xanthine (300 µM) was added. After incubation at 25 °C for 15 min, the reaction was stopped by adding 20 µL of HCl (1.0 M). The absorbance of the mixture solution was recorded at 295 nm by a microplate reader.
The control sample was prepared by adding PBS instead of tested sample. The background sample was prepared by replacing tested sample with the same volume of PBS. The blank sample was prepared by adding PBS instead of xanthine oxidase solution. All experiments were repeated three times. The inhibition ratio of xanthine oxidase was calculated as follows:Inhibition ratio (%) = [1 − (test sample-background sample/control sample-blank sample)] × 100
DH and DS samples were prepared in a series of concentrations. The xanthine oxidase inhibitory activities of DH and DS samples were evaluated by IC50 values (the concentration of the sample inhibited 50% the activity of the xanthine oxidase, and the IC50 values were calculated by a logarithmic regression curve. As DH and DS samples were mixtures of multiple constituents, the molar concentrations were uncertain. Thus, the IC50 values of anti-xanthine oxidase activities of DH and DS samples were expressed as mg/mL raw drug equivalents.
The IC50 is the concentration needed to halve the response being measured. As for `CC1=C(CC[C@@H](C)CO[C@@H]2O[C@H](CO)[C@@H](O)[C@H](O)[C@H]2O)OC2CC3C4CC=C5CC(O[C@@H]6O[C@H](CO)[C@@H](O)[C@H](O[C@@H]7O[C@H](CO)[C@@H](O)[C@H](O)[C@H]7O)[C@H]6O[C@@H]6O[C@@H](C)[C@H](O)[C@@H](O)[C@H]6O)CC[C@]5(C)C4CC[C@]3(C)C12` (stereo partly shown) [pseudoprogracillin], the IC50 was 250 µM.
Turning to `CC(CCC1(O)OC2CC3C4CC=C5CC(OC6OC(CO)C(O)C(OC7OC(CO)C(O)C(O)C7O)C6OC6OC(C)C(O)C(O)C6O)CCC5(C)C4CCC3(C)C2C1C)COC1OC(CO)C(O)C(O)C1O` (stereo not shown) [protogracillin], the IC50 amounted to 190 µM.
Regarding `CO[C@]1(CC[C@@H](C)CO[C@@H]2O[C@H](CO)[C@@H](O)[C@H](O)[C@H]2O)O[C@H]2C[C@H]3[C@@H]4CC=C5C[C@@H](O[C@@H]6O[C@H](CO)[C@@H](O[C@@H]7O[C@@H](C)[C@H](O)[C@@H](O)[C@H]7O)[C@H](O)[C@H]6O[C@@H]6O[C@@H](C)[C@H](O)[C@@H](O)[C@H]6O)CC[C@]5(C)[C@H]4CC[C@]3(C)[C@H]2[C@@H]1C` [methyl protodioscin], the IC50 came out at 220 µM.
For `CC(CCC1(O)OC2CC3C4CC=C5CC(OC6OC(CO)C(OC7OC(C)C(O)C(O)C7O)C(O)C6OC6OC(C)C(O)C(O)C6O)CCC5(C)C4CCC3(C)C2C1C)COC1OC(CO)C(O)C(O)C1O` (stereo not shown) [protodioscin] the value was 200 µM.
